Data as given in patent publication US9593108B2, “Compounds and methods for antiviral treatment” (PTC Therapeutics, Inc., priority 2009, dated 2017).

Experiments:
[1] = test system: HCV replicon RNA (GenBank Accession No. AJ242654); assay: HCV Replicon Assay (replicon RNA reduction and/or Fluc reporter signal); type: cell-based, Hepatitis C virus; conditions: Hepatitis C virus, 72 h, replicon-containing cells cultured with test compound for up to 3 days
Summary of the method: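 Bicistronic replicon-containing cells cultured with compound for up to 3 days, with interferon as positive control. Inhibition quantified by replicon RNA reduction and/or Fluc reporter signal; IC50 values generally derived from replicon RNA reduction.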

Compound | IC50 [1] [nM] | melting point [°C]
C[C@@H](NS(=O)(=O)c1cnc(-c2c(C#N)c3ccc(C4CC4)nc3n2C2CCC2)nc1)C(F)(F)F [Cpd 154, 2-(3-cyano-1-cyclobutyl-6-cyclopropyl-1H-pyrrolo[2,3-b]pyridin-2-yl)-N-[(2R)-1,1,1-trifluoropropan-2-yl]pyrimidine-5-sulfonamide] | < 500 | 244 to 249
COc1cnc2c(c1)c(C(N)=O)c(-c1ccc(NS(=O)(=O)C(C)(C)C)cc1)n2C1CCCC1 [Cpd 359, 2-{4-[(tert-butylsulfonyl)amino]phenyl}-1-cyclopentyl-5-methoxy-1H-pyrrolo[2,3-b]pyridine-3-carboxamide] | < 500 | 269 to 272
Cc1cnc2c(c1)c(C#N)c(-c1ncc(S(=O)(=O)N[C@@H](C)C(F)(F)F)cc1C)n2C1CCC1 [Cpd 291, 6-(3-cyano-1-cyclobutyl-5-methyl-1H-pyrrolo[2,3-b]pyridin-2-yl)-5-methyl-N-[(2S)-1,1,1-trifluoropropan-2-yl]pyridine-3-sulfonamide] | < 500 | 181 to 185
CC(C)(C)NS(=O)(=O)c1ccc(-c2c(C#N)c3cc(C(F)(F)F)cnc3n2-c2ccccn2)nc1 [Cpd 518, N-tert-butyl-6-[3-cyano-1-(pyridin-2-yl)-5-(trifluoromethyl)-1H-pyrrolo[2,3-b]pyridin-2-yl]pyridine-3-sulfonamide] | < 500 | 210.4 to 211.8
Cc1cnc2c(C#N)c(-c3ccc(S(=O)(=O)N[C@@H](C)C(F)(F)F)cc3)n(C3CCC3)c2c1 [Cpd 216, 4-(3-cyano-1-cyclobutyl-6-methyl-1H-pyrrolo[3,2-b]pyridin-2-yl)-N-[(2S)-1,1,1-trifluoropropan-2-yl]benzenesulfonamide] | 500 to 2000 | 245 to 246
CC(C)(C)S(=O)(=O)Nc1ccc(-c2c(C#N)c3cc(C(F)(F)F)cnc3n2C2CCCCC2)cc1 [Cpd 424, N-{4-[3-cyano-1-cyclohexyl-5-(trifluoromethyl)-1H-pyrrolo[2,3-b]pyridin-2-yl]phenyl}-2-methylpropane-2-sulfonamide] | < 500 | 245 to 247
C[C@H](NS(=O)(=O)c1ccc(-c2c(C#N)c3cc(C(F)(F)F)cnc3n2-c2ccccn2)nc1)C(F)(F)F [Cpd 317, 6-[3-cyano-1-(pyridin-2-yl)-5-(trifluoromethyl)-1H-pyrrolo[2,3-b]pyridin-2-yl]-N-[(2S)-1,1,1-trifluoropropan-2-yl]pyridine-3-sulfonamide] | < 500 | 110 to 112
CC(C)NS(=O)(=O)c1cnc(-c2c(C#N)c3cc(C4CC4)cnc3n2C2CCC2)nc1 [Cpd 136, 2-(3-cyano-1-cyclobutyl-5-cyclopropyl-1H-pyrrolo[2,3-b]pyridin-2-yl)-N-(propan-2-yl)pyrimidine-5-sulfonamide] | < 500 | 187 to 195
Cc1cnc2c(C#N)c(-c3ccc(S(=O)(=O)N[C@@H](C)C(F)(F)F)cn3)n(-c3ccc(F)cn3)c2c1 [Cpd 467, 6-[3-cyano-1-(5-fluoropyridin-2-yl)-6-methyl-1H-pyrrolo[3,2-b]pyridin-2-yl]-N-[(2S)-1,1,1-trifluoropropan-2-yl]pyridine-3-sulfonamide] | < 500 | 263 to 265
Cc1cnc2c(C#N)c(-c3ccc(S(=O)(=O)N[C@@H](C)C(F)(F)F)cn3)n(-c3cccnc3)c2c1 [Cpd 466, 6-[3-cyano-6-methyl-1-(pyridin-3-yl)-1H-pyrrolo[3,2-b]pyridin-2-yl]-N-[(2S)-1,1,1-trifluoropropan-2-yl]pyridine-3-sulfonamide] | < 500 | 278 to 279
C[C@H](NS(=O)(=O)c1ccc(-c2c(C#N)c3cc(Cl)cnc3n2CC2CC2)nc1)C(F)(F)F [Cpd 63, 6-[5-chloro-3-cyano-1-(cyclopropylmethyl)-1H-pyrrolo[2,3-b]pyridin-2-yl]-N-[(2S)-1,1,1-trifluoropropan-2-yl]pyridine-3-sulfonamide] | < 500 | 226 to 227
C[C@H](NS(=O)(=O)c1cnc(-c2c(C#N)c3cc(C(F)F)cnc3n2C2CCC2)nc1)C(F)(F)F [Cpd 454, 2-[3-cyano-1-cyclobutyl-5-(difluoromethyl)-1H-pyrrolo[2,3-b]pyridin-2-yl]-N-[(2S)-1,1,1-trifluoropropan-2-yl]pyrimidine-5-sulfonamide] | < 500 | 155 to 156
COc1cnc2c(c1)c(C#N)c(-c1ncc(S(=O)(=O)N[C@@H](C)C(F)(F)F)cn1)n2C1CCC1 [Cpd 23, 2-(3-cyano-1-cyclobutyl-5-methoxy-1H-pyrrolo[2,3-b]pyridin-2-yl)-N-[(2S)-1,1,1-trifluoropropan-2-yl]pyrimidine-5-sulfonamide] | 500 to 2000 | 193 to 196
C[C@H](NS(=O)(=O)c1ccc(-c2c(C#N)c3cc(C(F)F)cnc3n2C2CCC2)cc1)C(F)(F)F [Cpd 453, 4-[3-cyano-1-cyclobutyl-5-(difluoromethyl)-1H-pyrrolo[2,3-b]pyridin-2-yl]-N-[(2S)-1,1,1-trifluoropropan-2-yl]benzenesulfonamide] | < 500 | 203 to 205
CC[C@H](NS(=O)(=O)c1ccc(-c2c(C#N)c3cc(C)cnc3n2C2CCC2)nc1)C(F)(F)F [Cpd 279, 6-(3-cyano-1-cyclobutyl-5-methyl-1H-pyrrolo[2,3-b]pyridin-2-yl)-N-[(2S)-1,1,1-trifluorobutan-2-yl]pyridine-3-sulfonamide] | < 500 | 138 to 144
CCc1cnc2c(c1)c(C#N)c(-c1ccc(S(=O)(=O)NC(C)(C)C(F)(F)F)cc1)n2C1CCC1 [Cpd 182, 4-(3-cyano-1-cyclobutyl-5-ethyl-1H-pyrrolo[2,3-b]pyridin-2-yl)-N-(1,1,1-trifluoro-2-methylpropan-2-yl)benzenesulfonamide] | < 500 | 190 to 195
Cc1cc2c(C#N)c(-c3ccc(S(=O)(=O)N[C@H](C)C(F)(F)F)cn3)n(C3CCC3)c2cn1 [Cpd 166, 6-(3-cyano-1-cyclobutyl-5-methyl-1H-pyrrolo[2,3-c]pyridin-2-yl)-N-[(2R)-1,1,1-trifluoropropan-2-yl]pyridine-3-sulfonamide] | < 500 | 195 to 198
N#Cc1c(-c2ccc(NS(=O)(=O)C3CCC3)cc2)n(C2CCCCC2)c2ncc(C(F)(F)F)cc12 [Cpd 428, N-{4-[3-cyano-1-cyclohexyl-5-(trifluoromethyl)-1H-pyrrolo[2,3-b]pyridin-2-yl]phenyl}cyclobutanesulfonamide] | < 500 | 234 to 236
C[C@@H](NS(=O)(=O)c1ccc(-c2c(C#N)c3cc(Cl)cnc3n2C2CCC2)nc1)C(F)(F)F [Cpd 50, 6-(5-chloro-3-cyano-1-cyclobutyl-1H-pyrrolo[2,3-b]pyridin-2-yl)-N-[(2R)-1,1,1-trifluoropropan-2-yl]pyridine-3-sulfonamide] | < 500 | 202 to 203
C[C@H](NS(=O)(=O)c1ccc(-c2c(C#N)c3cc(F)cnc3n2-c2ncc(F)cn2)nc1)C(F)(F)F [Cpd 462, 6-[3-cyano-5-fluoro-1-(5-fluoropyrimidin-2-yl)-1H-pyrrolo[2,3-b]pyridin-2-yl]-N-[(2S)-1,1,1-trifluoropropan-2-yl]pyridine-3-sulfonamide] | < 500 | 180 to 182
NC(=O)c1c(-c2ccc(S(=O)(=O)NC3(C(F)(F)F)CC3)cn2)n(C2CCCC2)c2ncc(C(F)(F)F)cc12 [Cpd 407, 1-cyclopentyl-5-(trifluoromethyl)-2-(5-{[1-(trifluoromethyl)cyclopropyl]sulfamoyl}pyridin-2-yl)-1H-pyrrolo[2,3-b]pyridine-3-carboxamide] | < 500 | 262 to 264
CC(C)(C)S(=O)(=O)Nc1ccc(-c2c(C(N)=O)c3cc(C(F)(F)F)cnc3n2C2CCC2)cc1 [Cpd 404, 2-{4-[(tert-butylsulfonyl)amino]phenyl}-1-cyclobutyl-5-(trifluoromethyl)-1H-pyrrolo[2,3-b]pyridine-3-carboxamide] | < 500 | 257 to 259
N#Cc1c(-c2ccc(S(=O)(=O)NC3(C(F)(F)F)CC3)cn2)n(C2CCC2)c2ncc(C3CC3)cc12 [Cpd 124, 6-(3-cyano-1-cyclobutyl-5-cyclopropyl-1H-pyrrolo[2,3-b]pyridin-2-yl)-N-[1-(trifluoromethyl)cyclopropyl]pyridine-3-sulfonamide] | < 500 | 163 to 171
C[C@H](NS(=O)(=O)c1ccc(-c2c(C#N)c3ccc(C4CC4)nc3n2C2CCC2)nc1)C(F)(F)F [Cpd 151, 6-(3-cyano-1-cyclobutyl-6-cyclopropyl-1H-pyrrolo[2,3-b]pyridin-2-yl)-N-[(2S)-1,1,1-trifluoropropan-2-yl]pyridine-3-sulfonamide] | < 500 | 170 to 176
C[C@H](NS(=O)(=O)c1ccc(-c2c(C(N)=O)c3cc(F)cnc3n2C2CCC2)nc1)C(F)(F)F [Cpd 356, 1-cyclobutyl-5-fluoro-2-(5-{[(2S)-1,1,1-trifluoropropan-2-yl]sulfamoyl}pyridin-2-yl)-1H-pyrrolo[2,3-b]pyridine-3-carboxamide] | < 500 | 223 to 225
Cc1ncc2c(C#N)c(-c3ccc(S(=O)(=O)N[C@@H](C)C4CC4)cn3)n(C3CCC3)c2n1 [Cpd 45, 6-(5-cyano-7-cyclobutyl-2-methyl-7H-pyrrolo[2,3-d]pyrimidin-6-yl)-N-[(1S)-1-cyclopropylethyl]pyridine-3-sulfonamide] | < 500 | 155 to 157
C[C@H](NS(=O)(=O)c1ccc(-c2c(C#N)c3cnc(Cl)cc3n2C2CCCC2)nc1)C(F)(F)F [Cpd 80, 6-(6-chloro-3-cyano-1-cyclopentyl-1H-pyrrolo[3,2-c]pyridin-2-yl)-N-[(2S)-1,1,1-trifluoropropan-2-yl]pyridine-3-sulfonamide] | < 500 | 235 to 237
